Reference: US12616697B2, “Methods of treatment with myosin modulator” (MyoKardia, Inc., priority 2020, dated 2026)

Tested on: subjects with symptomatic non-obstructive HCM (nHCM)
Assay: […]-HCM Phase 2 randomized, double-blind, placebo-controlled, concentration-guided study
Assay type: in vivo, human
Set-up: Overall KCCQ Summary Score, mean change / Clinical KCCQ Summary Score, mean change / Overall KCCQ Summary Score / Clinical KCCQ Summary Score: scale not given here
Settings: for LVEF, mean change: Week 16
Text: This is a Phase 2 trial designed to assess the safety and tolerability of a range of exposures over 16 weeks of treatment in subjects with symptomatic, non-obstructive HCM. All study subjects were required to be diagnosed with non-obstructive HCM, with left ventricular wall thickness either ≥15 mm or ≥13 mm with a family history of HCM, LVEF≥55%, NYHA classifications of Class II or III, and NT-proBNP levels of greater than 300 pg/mL at rest. Baseline characteristics, such as age, weight, gender, pathogenic mutation status, background beta blocker use, NYHA classification and exercise capacity were approximately evenly distributed between active and placebo arms.
This double-blind study enrolled 59 individuals with nHCM (Left ventricular outflow tract gradient<30 mmHg; resting or provoked), NYHA Class II or III, and LVEF≥55%. Subjects were randomized 1:1:1 to one of two target plasma drug concentrations (Group 1: ˜200 ng/mL and Group 2: ˜500 ng/mL) or placebo for 16 weeks, followed by an 8-week washout. […] Predefined criteria, including LVEF (LVEF≤45%), guided study drug discontinuation if indicated. Cardiopulmonary exercise testing was performed at baseline and Week 16 to assess the impact on exercise capacity.
Dose adjustments will be based on PK parameters. Assessments include safety, standardized cardiopulmonary exercise testing (CPET) with measurement of peak oxygen consumption, echocardiography to evaluate left ventricular ejection fraction (LVEF) and parameters of diastolic function, symptoms, quality of life, daily step counts, and NT-proBNP at rest and after exercise. In addition, subjects may consent to hypertrophic cardiomyopathy genotyping and pharmacogenetic sampling.
Cardiac Troponin I levels were evaluated on plasma and serum samples of subjects at baseline and at various time points in the trial (Abbott Architect Stat Troponin-I assay (Ref. 2K41)). Cardiac Troponin T levels were evaluated on plasma and serum samples of subjects at baseline and at various time points in the trial (Roche Elecsys Troponin T hs assay) (Ref. 08469873190) performed on a cobas e 801 analyzer). NT-proBNP levels were evaluated on plasma samples using the Roche Elecsys proBNPII assay (Ref. 07027664190) on a cobas e 801 analyzer.
Subjects were randomized via an interactive response system to 3 groups in a 1:1:1 ratio: 2 active treatment groups and 1 matching placebo.
5 mg QD was used as the starting dose for the study. All subjects in the active treatment groups started on 5 mg QD. […] PK modeling was used to guide blinded dose adjustment at the Week 6 visit, based on the plasma concentrations collected at Week 4. Subjects in the placebo group underwent the same assessments in order to preserve the blind. […] Subjects were instructed to take the drug under fasting conditions, at approximately the same time each day, and with 8 ounces of water.
To achieve the target concentration, if a subject's Week 4 concentration was >450 ng/mL, the subject's dose was decreased to 2.5 mg QD; if Week 4 concentration was 110-450 ng/mL, the dose was maintained at 5 mg QD; and if Week 4 concentration was <110 ng/mL, the dose was increased to 10 mg QD.
Subjects were monitored for adverse events (AE), including high blood plasma concentration, systolic dysfunction, QT prolongation, and LVEF decrease. If any of the following thresholds were hit PK 1000 or more, QTcF 500, or LVEF 45%, the subjects were discontinued on drug. Specifically, high blood plasma concentration was defined as blood plasma concentration greater than or equal to 1000 ng/mL; QT prolongation was defined as QTcF greater than or equal to 500 ms; and LVEF shortening was defined as LVEF less than or equal to 45% (including serious adverse event (SAE) for LVEF less than or equal to 30%).
Efficacy and pharmacodynamics assessments were also made. Resting transthoracic echocardiography measurements were taken at Weeks 4, 8, 12 and 16. […]

[1] = Elevated Troponin subgroup, Mean Difference vs placebo
[2] = Elevated Troponin subgroup, mean change from baseline
[3] = Subgroup with Elevated E/e′ at Baseline, Difference mavacamten vs placebo
[4] = Subgroup with Elevated E/e′ at Baseline, pooled, mean change from baseline

With `CC(C)n1c(=O)cc(N[C@@H](C)c2ccccc2)[nH]c1=O` [mavacamten, (S)-3-Isopropyl-6-((1-phenylethyl)amino)pyrimidine-2, 4(1H,3H)-dione] the “Composite Functional Endpoint: Met endpoint, either type, %” value (“Composite Functional Endpoint … %” for short) (Combined Subgroup (elevated cTnI or E/e′ average >14), Pooled) was 33%, the “Composite Functional Endpoint … %” value (Combined Subgroup, Group 1 ~200 ng/mL) was “(33.3) %” and the “Composite Functional Endpoint … %” value (Combined Subgroup, Group 2 ~500 ng/mL) was “(33.3) %”. The “Clinical KCCQ Summary Score” value [1] was 8.8, the “NYHA Class” value [1] was −0.3 and the “Peak VO2” value [1] was 2.70 mL/min/kg. For the same compound, the “Serum Troponin I (cTnI)” value [1] was -0.083 ng/mL, the “Clinical KCCQ Summary Score” value [2] was 6.9 and the “NYHA Class” value [2] was −0.5. The “Overall KCCQ Summary Score” value [2] was 6.4, the “Serum Troponin I (cTnI)” value [2] was -0.12 ng/mL and the “Clinical KCCQ Summary Score, mean change” value (ITT, Group 1 ~200 ng/mL) was 0.11. The “Lateral e′, mean change” value (ITT, Group 1 ~200 ng/mL) was 0.34 cm/s, the “NYHA Class, mean change” value (ITT, Group 1 ~200 ng/mL) was −0.6 and the “Overall KCCQ Summary Score, mean change” value (ITT, Group 1 ~200 ng/mL) was 0.35. For the same compound, the “Peak VO2, mean change” value (ITT, Group 1 ~200 ng/mL) was 0.36 mL/min/kg, the “Septal e′, mean change” value (ITT, Group 1 ~200 ng/mL) was 0.64 cm/s and the “LVEF, mean change” value (ITT, Group 1 ~200 ng/mL) was −2.30%. For the same compound, the “LVEDV, mean change” value (ITT, Group 2 ~500 ng/mL) was 6.50 mL, the “NYHA Class, mean change” value (ITT, Group 2 ~500 ng/mL) was −0.3 and the “Peak VO2, mean change” value (ITT, Group 2 ~500 ng/mL) was 0.12 mL/min/kg. For the same compound, the “Septal e′, mean change” value (ITT, Group 2 ~500 ng/mL) was 1.60 cm/s, the “Lateral e′, mean change” value (ITT, Pooled) was 0.94 cm/s and the “NYHA Class, mean change” value (ITT, Pooled) was −0.4. For the same compound, the “Peak VO2, mean change” value (ITT, Pooled) was 0.22 mL/min/kg, the “LVEF, mean change” value (ITT, Pooled) was −4.1% and the “Clinical KCCQ Summary Score” value [3] was 4.1. For the same compound, the LVEDVi [3] was 3.9 mL/m^2, the “NYHA Class” value [3] was 0.0 and the “Overall KCCQ Summary Score” value [3] was 0.4. The “Peak VO2” value [3] was 1.9 mL/min/kg, the cTnI [3] was -0.07 ng/mL and the “Clinical KCCQ Summary Score” value [4] was 4.6. For the same compound, the LVEDVi [4] was 2.8 mL/m^2, the “NYHA Class” value [4] was −0.4 and the “Overall KCCQ Summary Score” value [4] was 4.7. For the same compound, the “Peak VO2” value [4] was 1.2 mL/min/kg, the cTnI [4] was -0.09 ng/mL and the “Serious adverse events (SAEs), subjects” value (subjects receiving mavacamten, placebo 21%) was 10%. For the same compound, the “participants with a decrease in LVEF to ≤45%, %” value (weeks 11-12, active treatment) was 12.5%.
